The source of these data is US7989447B2, “1,5 and 3,6-substituted indole compounds having NOS inhibitory activity” (NeurAxon, Inc., priority 2006, dated 2011).

SMILES strings stand for the structures.

The target of test [1] is human endothelial constitutive NOS (eNOS) (Homo sapiens, UniProt P29474). Nature of the test: eNOS (Human) enzyme assay, radiometric conversion of [3H]L-arginine to [3H]L-citrulline. The class given is biochemical. The note with it: recombinant human enzyme, 37° C., 45 min; read-out: Human eNOS. As for the experimental part: Recombinant human inducible NOS (iNOS), human endothelial constitutive NOS (eNOS) or human neuronal constitutive NOS(nNOS) were produced in Baculovirus-infected Sf9 cells (ALEXIS). In a radiometric method, NO synthase activity was determined by measuring the conversion of [^3H]L-arginine to [^3H]L-citrulline. To measure iNOS, 10 μL of enzyme was added to 100 μL of 100 mM HEPES, pH=7,4, containing 1 mM CaCl2, 1 mM EDTA, 1 mM dithiotheitol, 1 μM FMN, 1 μM FAD, 10 μM tetrahydrobiopterin, 120 μM NADPH, and 100 nM CaM. To measure eNOS or nNOS, 10 μL of enzyme was added to 100 μL of 40 mM HEPES, pH=7.4, containing 2.4 mM CaCl2, 1 mM MgCl2, 1 mg/mL BSA, 1 mM EDTA, 1 mM dithiothreitol, 1 μM FMN, 1 μM FAD, 10 μM tetrahydrobiopterin, 1 mM NADPH, and 1.2 μM CaM.
To measure enzyme inhibition, a 15 μL solution of a test substance was added to the enzyme assay solution, followed by a pre-incubation time of 15 min at RT. The reaction was initiated by addition of 20 μL L-arginine containing 0.25 μCi of [^3H]arginine/mL and 24 μM L-arginine. The total volume of the reaction mixture was 150 μL in every well. The reactions were carried out at 37° C. for 45 min. The reaction was stopped by adding 20 μL of ice-cold buffer containing 100 mM HEPES, 3 mM EGTA, 3 mM EDTA, pH=5.5. [^3H]L-citrulline was separated by DOWEX (ion-exchange resin DOWEX 50 W X 8-400, SIGMA) and the DOWEX was removed by spinning at 12,000 g for 10 min in the centrifuge. An 70 μL aliquot of the supernatant was added to 100 μL of scintillation fluid and the samples were counted in a liquid scintillation counter (1450 Microbeta Jet, Wallac). […] All assays were performed at least in duplicate.

Test [2] addresses human neuronal constitutive NOS (nNOS) (Homo sapiens, UniProt P29475). Nature of the test: nNOS (Human) enzyme assay, radiometric conversion of [3H]L-arginine to [3H]L-citrulline. The class given is biochemical. The note with it: for Ratio e/n: human eNOS / human nNOS; for IC50: recombinant human enzyme, 37° C., 45 min, read-out: Human nNOS.
Protocol: To measure enzyme inhibition, a 15 μL solution of a test substance was added to the enzyme assay solution, followed by a pre-incubation time of 15 min at RT. […] The total volume of the reaction mixture was 150 μL in every well. The reactions were carried out at 37° C. for 45 min. The reaction was stopped by adding 20 μL of ice-cold buffer containing 100 mM HEPES, 3 mM EGTA, 3 mM EDTA, pH=5.5. [^3H]L-citrulline was separated by DOWEX (ion-exchange resin DOWEX 50 W X 8-400, SIGMA) and the DOWEX was removed by spinning at 12,000 g for 10 min in the centrifuge. […] All assays were performed at least in duplicate. Standard deviations were 10% or less.

Chain of human neuronal constitutive NOS (nNOS) (P29475 whole entry): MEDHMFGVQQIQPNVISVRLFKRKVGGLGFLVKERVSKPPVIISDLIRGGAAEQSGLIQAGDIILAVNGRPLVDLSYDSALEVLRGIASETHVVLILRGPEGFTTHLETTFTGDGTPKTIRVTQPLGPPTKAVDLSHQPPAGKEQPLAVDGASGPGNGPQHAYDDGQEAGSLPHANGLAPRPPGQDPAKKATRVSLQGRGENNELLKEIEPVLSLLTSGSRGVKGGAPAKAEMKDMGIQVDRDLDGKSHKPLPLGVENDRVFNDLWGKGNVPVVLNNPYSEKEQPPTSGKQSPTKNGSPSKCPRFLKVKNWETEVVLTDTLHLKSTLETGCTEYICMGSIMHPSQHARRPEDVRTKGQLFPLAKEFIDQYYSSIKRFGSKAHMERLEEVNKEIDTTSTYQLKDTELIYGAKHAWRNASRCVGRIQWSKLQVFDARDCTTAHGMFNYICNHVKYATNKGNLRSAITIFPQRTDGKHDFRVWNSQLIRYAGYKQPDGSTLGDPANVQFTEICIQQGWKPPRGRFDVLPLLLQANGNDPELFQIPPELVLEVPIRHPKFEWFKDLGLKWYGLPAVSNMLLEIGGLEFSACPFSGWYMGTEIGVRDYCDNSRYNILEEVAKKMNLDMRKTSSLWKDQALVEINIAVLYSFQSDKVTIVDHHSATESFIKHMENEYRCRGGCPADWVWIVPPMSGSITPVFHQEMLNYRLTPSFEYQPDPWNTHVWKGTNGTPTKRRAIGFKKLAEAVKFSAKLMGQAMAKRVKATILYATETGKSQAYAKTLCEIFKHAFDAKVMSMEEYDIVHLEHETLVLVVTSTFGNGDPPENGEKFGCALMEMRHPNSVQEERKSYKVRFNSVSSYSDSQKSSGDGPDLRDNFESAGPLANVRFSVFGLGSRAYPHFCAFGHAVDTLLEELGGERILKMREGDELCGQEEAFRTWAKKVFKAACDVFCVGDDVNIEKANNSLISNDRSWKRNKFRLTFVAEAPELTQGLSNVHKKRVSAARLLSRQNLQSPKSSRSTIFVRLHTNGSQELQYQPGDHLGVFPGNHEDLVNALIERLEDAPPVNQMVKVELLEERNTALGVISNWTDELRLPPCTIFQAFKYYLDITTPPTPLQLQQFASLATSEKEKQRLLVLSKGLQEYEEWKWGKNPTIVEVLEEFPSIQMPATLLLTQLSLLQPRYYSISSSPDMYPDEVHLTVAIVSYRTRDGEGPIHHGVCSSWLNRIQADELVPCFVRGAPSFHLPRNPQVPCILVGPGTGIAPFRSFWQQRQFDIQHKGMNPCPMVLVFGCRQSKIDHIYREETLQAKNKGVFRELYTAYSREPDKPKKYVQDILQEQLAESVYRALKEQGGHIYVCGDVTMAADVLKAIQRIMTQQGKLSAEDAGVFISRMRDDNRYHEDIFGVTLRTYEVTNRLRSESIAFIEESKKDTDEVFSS

With `CN1CCCC1CCn1c(Cc2ccccc2)cc2cc(NC(=N)c3cccs3)ccc21` (stereo not drawn) [Compound 6, N-(2-benzyl-1-(2-(1-methylpyrrolidin-2-yl)ethyl)-1H-indol-5-yl)thiophene-2-carboximidamide], the IC50 was 7.9 µM in test [1] and 0.19 µM in test [2]. In addition, the Ratio e/n in test [2] was determined as 41.57.
As for `N=C(Nc1ccc2c(c1)cc(-c1ccc([N+](=O)[O-])cc1)n2CCN1CCCCC1)c1cccs1` [Compound 18, N-(2-(4-nitrophenyl)-1-(2-(piperidin-1-yl)ethyl)-1H-indol-5-yl)thiophene-2-carboximidamide], the IC50 in test [1] was 19 µM; in test [2], 0.41 µM.
Take `Cc1cc2cc(NC(=N)c3cccs3)ccc2n1CCN(C)C` [Compound 25, N-(1-(2-(dimethylamino)ethyl)-2-methyl-1H-indol-5-yl)thiophene-2-carboximidamide]: the IC50 in test [1] amounted to 3.18 µM; in test [2], 0.82 µM. Further, in test [2], the Ratio e/n is recorded as 3.88.
The matching figures for `Cc1cc2cc(NC(=N)c3cccs3)ccc2n1CCN1CCCC1` [Compound 28, N-(2-methyl-1-(2-(pyrrolidin-1-yl)ethyl)-1H-indol-5-yl)thiophene-2-carboximidamide]: 1.49 µM, 0.2 µM and 7.41.
Consider `Cc1cc2cc(NC(=N)c3cccs3)ccc2n1CCC1CCCN1C` (stereo not drawn) [Compound 32, N-(2-methyl-1-(2-(1-methylpyrrolidin-2-yl)ethyl)-1H-indol-5-yl)thiophene-2-carboximidamide], for which, in test [1], the IC50 stood at 2.87 µM. For the same compound, in test [2], the Ratio e/n is on record as 20.2 and the IC50 came to 0.14 µM.
The matching figures for `CN1CCCC1CCn1ccc2cc(CNC(=N)c3cccs3)ccc21` (stereo not drawn) [Compound 37, N-((1-(2-(1-methylpyrrolidin-2-yl)ethyl)-1H-indol-5-yl)methyl)thiophene-2-carboximidamide]: 91 µM, 1.24 and 73 µM.
Consider `N=C(Nc1ccc2c(ccn2CCCN2CCOCC2)c1)c1cccs1` [Compound 40, N-(1-(3-morpholinopropyl)-1H-indol-5-yl)thiophene-2-carboximidamide], for which the results for the IC50 in test [1] and in test [2] were 6 µM and 0.66 µM, respectively. In addition, the Ratio e/n in test [2] turned out to be 9.09.
For `N=C(Nc1ccc2c(ccn2CCCNC23CC4CC(CC(C4)C2)C3)c1)c1cccs1` [Compound 42, N-(1-(3-adamantanaminopropyl)-1H-indol-5-yl)thiophene-2-carboximidamide], in that order: 3.15 µM, 0.36 µM and 8.67.
For the compound `CCN1CCCC1CNCCCn1ccc2cc(NC(=N)c3cccs3)ccc21` (stereo not drawn) [Compound 44, N-(1-(3-((1-ethylpyrrolidin-2-yl)methylamino)propyl)-1H-indol-5-yl)thiophene-2-carboximidamide], the IC50 in test [1] is 6.33 µM.
Turning to `N=C(Nc1ccc2c(ccn2CCCNC2CC2)c1)c1cccs1` [Compound 46, N-(1-(3-(cyclopropylamino)propyl)-1H-indol-5-yl)thiophene-2-carboximidamide], the IC50 in test [1] was determined as 8.72 µM. In test [2], the Ratio e/n is given as 32.53 and the IC50 was determined as 0.26 µM.
Consider `CN(C)CCCn1ccc2cc(NC(=N)c3cccs3)ccc21` [Compound 48, N-(1-(3-(dimethylamino)propyl)-1H-indol-5-yl)thiophene-2-carboximidamide], for which the IC50 in test [1] was found to be 12.4 µM.
Still for that read-out and setting: for `CN1CCCC1CCn1ccc2cc(NC(=N)c3ccco3)ccc21` (stereo not drawn) [Compound 53, N-(1-(2-(1-methylpyrrolidin-2-yl)ethyl)-1H-indol-5-yl)furan-2-carboximidamide] the value was 13.9 µM; for `CN1CCCC1CCn1ccc2cc(NC(=N)c3cccs3)ccc21` (stereo not drawn) [Compound 56, N-(1-(2-(1-methylpyrrolidin-2-yl)ethyl)-1H-indol-5-yl)thiophene-2-carboximidamide], 4.49 µM.
